Source: patent US6653311B1, “5-lipoxygenase inhibitors: (2-azinylamino) quinone derivatives” (Board of Supervisors of Louisiana State University, priority 2002, dated 2003)
Blank lines part the entries; values can stand above or below the molecule they belong to.

Columns and labels:
COX-1 = COX-1 (Homo sapiens, UniProt P23219); test: In vitro inhibition of COX-1 activity; conditions: read-out: COX-1 percent inhibition
Text: (§1) Percent inhibition mean values ±SD from at least three individual determinations are shown.

5-lipoxygenase (5-LO) = target: T1, 5-lipoxygenase (5-LO) (Oryctolagus cuniculus, UniProt G1SNX0); test: Radioisotopic assay of 5-LO activity (LTB4 formation from 14C-arachidonic acid) in rabbit peritoneal PMNL stimulated with A-23187; type: cell-based; conditions: for inhibition at 1 µM: rabbit peritoneal neutrophils (PMNL), mean ± s.d. of three experiments in duplicate, read-out: % Inhibition (percent inhibition of LTB4 formation); for in vitro 5-LO activity in words: peritoneal PMNL
T1 construct: Polymorphonuclear leukocytes (PMNLs) were purified from rabbits by glycogen-intraperitoneal elicited intraperitoneal recruitment; endogenous in cells; host or cells: rabbit peritoneal polymorphonuclear leukocytes (PMNL), glycogen-elicited
T1 sequence (G1SNX0 1-674): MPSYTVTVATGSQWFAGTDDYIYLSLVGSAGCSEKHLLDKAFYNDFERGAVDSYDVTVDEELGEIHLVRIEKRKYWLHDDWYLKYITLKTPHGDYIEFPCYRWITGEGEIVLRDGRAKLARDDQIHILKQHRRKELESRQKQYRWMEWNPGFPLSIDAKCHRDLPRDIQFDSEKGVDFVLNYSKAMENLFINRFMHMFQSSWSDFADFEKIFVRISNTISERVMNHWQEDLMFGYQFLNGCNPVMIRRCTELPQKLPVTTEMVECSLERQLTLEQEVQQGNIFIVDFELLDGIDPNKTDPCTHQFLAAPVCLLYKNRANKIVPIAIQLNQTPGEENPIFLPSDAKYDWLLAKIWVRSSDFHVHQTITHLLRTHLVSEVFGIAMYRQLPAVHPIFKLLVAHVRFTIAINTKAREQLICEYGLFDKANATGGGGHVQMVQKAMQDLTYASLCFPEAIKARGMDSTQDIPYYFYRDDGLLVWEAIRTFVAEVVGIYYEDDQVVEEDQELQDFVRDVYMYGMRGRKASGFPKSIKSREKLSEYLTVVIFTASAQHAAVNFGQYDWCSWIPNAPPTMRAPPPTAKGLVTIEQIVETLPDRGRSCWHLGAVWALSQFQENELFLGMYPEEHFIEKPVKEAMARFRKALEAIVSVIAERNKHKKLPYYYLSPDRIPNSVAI
Text: The 5-LO enzyme, which is found primarily in cells of myeloid origin such as polymorphonuclear leukocytes (“PMNL”), eosinophils, and macrophages, catalyzes the first step of the biochemical pathway in which arachadonic acid (“AA”) is,converted into LTA4. […] To test the inhibition of the quinone derivatives on the activity of 5-LO rabbit polymorphonuclear leucocytes (PMNLs) were used.
Polymorphonuclear leukocytes (PMNLs) were purified from rabbits by glycogen-intraperitoneal elicited intraperitoneal recruitment, as descrited in T. Yatabe et al., “Studies on 5-lipoxygenase inhibitors: I. Synthesis and 5-lipoxygenase inhibitory activity of novel hydroxanic acid derivatives,” chem. Pharm. Bull., vol. 46, pp. 966-972 (1998). An intraperitoneal injection of 300 mL of 0.1% (w/v) glycogen in sterile saline was administered 6 h before the rabbits were sacrificed by an intravascular injection of Nembutal. Peritoneal exudates were collected in 5 μM EGTA, and residual red cells were removed by lysis in ammonium chloride. These cell preparations were obtained with greater than 96% purity, as assessed by Wright-Giemsa staining and greater than 95% viability as assessed by Trypan blue exclusion.
PMNL cells in suspension were pre-incubated for 20 min at room temperature with ^14C-labeled arachadonic acid (AA) and diluted to 3000 cells μL^−1. Thereafter, the calcium ionophore A-23187 (1 μg/mL) was added to stimulate LTB4 production, and the cells further incubated for 15 min under stirring at 37° C. After incubation, the aqueous samples were successively shaken with a mixture of chloroform/methanol/formic acid (12:12:1) for 30 sec and then with chloroform for 10 sec. Organic phases containing LTB4, 5-HPETE (5-hydroperoxyeicosatetraenoic acid), diHPETEs (dihydroperoxyeicosatetraenoic acids), and prostaglandins (PGs) were pooled, evaporated to dryness under nitrogen and dissolved into a small amount of chloroform-MeOH (1:1). Separation of the 5-LO metabolites was performed by thin layer chromatography (TLC) on silica gel G plates developed in diethyl ether-hexane-acetic acid (60:40:1, v/v/v).
Bands containing 5-lipoxygenase (5-LO) metabolites were scraped from the TLC plates, and ^14C levels were quantitatively measured by liquid scintillation. 5-LO activity was an obtained from the amount of ^14C-arachidonic acid converted into LTB4 after the prelabeled PMNL cells were stimulated to produce LTB4 by the calcium ionophore as described above. IC50 was calculated as the concentration of the 5-LO antagonist that produced 50% inhibition of the metabolite conversion.
[…] IC50 values, calculated as theconcentration of test compound required to cause 50% inhibition of LTB4 formation, were also determined for some representative examples. […] These compounds, in general, correspond to compounds bearing the more lipophilic quinone fragments. […] See S. Ohkawa et al., “Dual Inhibition of Thromboxane A2 Synthetase and 5-Lipoxygenase with Scavenging Activity of Active Oxygen Species. Synthesis of a Novel Series of (3-Pyridylmethyl)benzoquinone Derivatives,” J. Med. Chem., vol. 34, pp. 267-276 (1991).

[1] = system: arachidonic acid-induced ear inflammation in mice; test: Arachidonic acid-induced ear inflammation in mice (AAE test); type: in vivo; conditions: mice, topical
5-LO = target: T2, 5-LO (Rattus norvegicus, UniProt P12527); test: 5-LO inhibition by radioimmunoassay (RIA) in rat peritoneal PMNL; conditions: inhibitors at 'AM final concentration' [sic], mean ± SD
T2 sequence (P12527 1-673): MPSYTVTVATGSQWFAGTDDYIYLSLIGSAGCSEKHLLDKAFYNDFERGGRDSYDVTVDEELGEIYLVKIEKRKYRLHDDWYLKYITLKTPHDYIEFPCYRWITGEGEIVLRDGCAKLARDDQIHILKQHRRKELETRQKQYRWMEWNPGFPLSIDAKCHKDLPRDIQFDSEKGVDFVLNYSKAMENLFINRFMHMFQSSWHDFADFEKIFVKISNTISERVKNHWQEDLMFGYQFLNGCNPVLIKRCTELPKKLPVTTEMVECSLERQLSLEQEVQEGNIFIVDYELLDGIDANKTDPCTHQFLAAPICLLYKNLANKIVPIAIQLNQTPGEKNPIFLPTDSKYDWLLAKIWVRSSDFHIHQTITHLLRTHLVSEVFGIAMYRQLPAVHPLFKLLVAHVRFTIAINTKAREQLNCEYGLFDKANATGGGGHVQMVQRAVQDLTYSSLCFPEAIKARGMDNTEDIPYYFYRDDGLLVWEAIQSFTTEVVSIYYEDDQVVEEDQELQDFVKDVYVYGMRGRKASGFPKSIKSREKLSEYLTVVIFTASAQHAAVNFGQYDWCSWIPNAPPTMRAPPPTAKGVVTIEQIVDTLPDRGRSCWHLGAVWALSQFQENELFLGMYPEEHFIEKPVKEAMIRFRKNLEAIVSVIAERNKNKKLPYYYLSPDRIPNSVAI
Text: as §1

[2] = Mus musculus, 250 μg/ear, read-out: % inhibition of AA-induced ear inflammation

Chain of COX-1 (P23219 24-599): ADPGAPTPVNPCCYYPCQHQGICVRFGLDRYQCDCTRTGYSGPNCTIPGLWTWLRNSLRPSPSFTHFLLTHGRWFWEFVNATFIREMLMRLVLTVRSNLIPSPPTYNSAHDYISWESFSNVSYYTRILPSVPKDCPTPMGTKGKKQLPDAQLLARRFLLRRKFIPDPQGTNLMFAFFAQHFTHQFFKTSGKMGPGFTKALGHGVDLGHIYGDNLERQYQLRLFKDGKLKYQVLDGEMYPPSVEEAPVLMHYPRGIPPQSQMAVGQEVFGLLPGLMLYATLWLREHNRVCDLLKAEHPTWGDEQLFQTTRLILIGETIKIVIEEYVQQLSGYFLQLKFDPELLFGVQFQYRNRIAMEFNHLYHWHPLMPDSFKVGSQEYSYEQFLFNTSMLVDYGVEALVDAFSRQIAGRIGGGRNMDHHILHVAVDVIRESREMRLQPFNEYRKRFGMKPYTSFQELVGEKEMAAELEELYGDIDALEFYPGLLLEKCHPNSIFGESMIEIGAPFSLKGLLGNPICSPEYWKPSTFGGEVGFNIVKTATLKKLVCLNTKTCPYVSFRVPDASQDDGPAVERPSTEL

SMILES: CC(=O)Oc1ccccc1C(=O)O [Aspirin, reference compound]
- inhibition at 500 µM (COX-1): 83.1 ± 2%

SMILES: O=C1C=CC(=O)C(Nc2ccccn2)=C1 [Compound 4a]
- melting point: 102 to 104 °C

SMILES: CC1=CC(=O)C=C(Nc2ccccn2)C1=O [Compound 4b, 2-Methyl-6-(pyridin-2-ylamino)-[1,4]benzoquinone]
- melting point: 162 to 164 °C
- inhibition at 1 µM (5-lipoxygenase (5-LO)): 86 ± 2.3%

SMILES: CC1=C(C)C(=O)C(Nc2ccccn2)=CC1=O [Compound 4d, 2,3-Dimethyl-5-(pyridin-2-ylamino)-[1,4]benzoquinone]
- change in vivo at 50 µg/ear ([1]; Mus musculus, 50 μg/ear, read-out: % inhibition of AA-induced ear inflammation): -18.3 ± 3.3%
- change in vivo at 100 µg/ear ([1]; Mus musculus, 100 μg/ear, read-out: % inhibition of AA-induced ear inflammation): -27.8 ± 3.6%
- change in vivo at 250 µg/ear [1, 2]: -35.9 ± 7.4%
- inhibition at 1 µM (5-lipoxygenase (5-LO)): 88 ± 5.2%

SMILES: O=C1C=C(Nc2ccccn2)C(=O)C(c2ccccc2)=C1 [Compound 4f, 2-Phenyl-6-(pyridin-2-ylamino)-[1,4]benzoquinone]
- melting point: 165 to 167 °C
- inhibition at 1 µM (5-lipoxygenase (5-LO)): 64 ± 4.3%

SMILES: COC1=C(OC)C(=O)C(Nc2ccc(Cl)cn2)=C(C)C1=O [Compound 4g, 2-(5-Chloropyridin-2-ylamino)-5,6-dimethoxy-3-methyl-[1,4]benzoquinone]
- melting point: 106 to 108 °C

SMILES: COC1=C(OC)C(=O)C(Nc2ccc(Br)cn2)=C(C)C1=O [Compound 4h, 2-(5-Bromopyridin-2-ylamino)-5,6-dimethoxy-3-methyl-[1,4]benzoquinone]
- melting point: 99 to 100 °C

SMILES: CC1=C(Nc2ccccn2)C(=O)c2ccccc2C1=O [Compound 4j, 2-Methyl-3-(pyridin-2-ylamino)-[1,4]naphthoquinone]
- melting point: 130 to 132 °C

SMILES: O=C1C=C(Nc2ccc(Cl)cn2)C(=O)c2ccccc21 [Compound 4k, 2-(5-Choropyridin-2-ylamino)-[1,4]naphthoquinone]
- melting point: 251 to 252 °C
- inhibition at 1 µM (5-lipoxygenase (5-LO)): 24 ± 3.7%
- in vitro 5-LO activity in words (5-lipoxygenase (5-LO)): significant inhibition of 5-LO

SMILES: O=C1C=C(Nc2ccc(I)cn2)C(=O)c2ccccc21 [Compound 4m, 2-(5-Iodopyridin-2-ylamino)-[1,4]naphthoquinone]
- melting point: 245 to 246 °C

SMILES: COc1ccc2c(c1)c(CC(=O)O)c(C)n2C(=O)c1ccc(Cl)cc1 [Indometacin, reference compound]
- change in vivo at 250 µg/ear [1, 2]: -26.6 ± 7.3%

SMILES: CC(C)c1ccc2c(c1)c(SC(C)(C)C)c(CC(C)(C)C(=O)O)n2Cc1ccc(Cl)cc1 [MK-886, 3-[3-t-Butylthio-l-(p-chlorobenzyl)-5-isopropylindol-2-yl]-2,2-dimethylpropionic acid, reference compound]
- % inhibition of AA-induced ear inflammation ([1]; 250 μg/ear): −25.7 ± 8.1%

Second part, the molecule after the results:

- melting point: 249 to 250 °C
SMILES: O=C1C=C(Nc2ncc(Cl)cc2Cl)C(=O)c2ccccc21 [Compound 4n, 2-(3,5-Dichloropyridin-2-ylamino)-[1,4]naphthoquinone]

- melting point: 167 to 169 °C
- inhibition at 1 µM (5-lipoxygenase (5-LO)): 56 ± 3.1%
SMILES: CC1=CC(=O)C=C(Nc2ncccn2)C1=O [Compound 4o, 2-Methyl-6-(pyrimidin-2-ylamino)-[l 4]benzoquinone]

- melting point: 132 to 134 °C
SMILES: COC1=C(OC)C(=O)C(Nc2ncccn2)=C(C)C1=O [Compound 4q, 2,3-Dimethoxy-5-methyl-6-(pyrimidin-2-ylamino)-[1.4]benzoquinone]

- melting point: 229 to 230 °C
SMILES: O=C1C=C(Nc2nccc(-c3ccccc3)n2)C(=O)c2ccccc21 [Compound 4u, 2-(4-Phenylpyrimidin-2-ylamino)-[1,4]naphthoquinone]

- in vitro 5-LO activity in words (5-lipoxygenase (5-LO)): inactive
SMILES: CC1=CC(=O)C=C(Nc2cnccn2)C1=O [Compound 4v, 2-Methyl-6-(pyrazin-2-ylamino)-[1,4]benzoquinone]

- melting point: 134 to 136 °C
- in vitro 5-LO activity in words (5-lipoxygenase (5-LO)): inactive
SMILES: CC1=CC(=O)C(Nc2cnccn2)=CC1=O [Compound 4x, 2-Methyl-5-(pyrazin-2-ylamino)-[1,4]benzoquinone]

- melting point: 245 to 247 °C
- activation (LTB4 formation) (5-lipoxygenase (5-LO); at 0.1 μM, PMNL): ^d180% activation at 0.1 μM.
- in vitro 5-LO activity in words (5-lipoxygenase (5-LO)): agonist activity
SMILES: O=C1C=C(Nc2cnccn2)C(=O)c2ccccc21 [Compound 4y, 2-(Pyrazin-2-ylamino)-[i, 4]naphthoquinone]

- 5-LO percent inhibition (5-LO): 92.0 ± 4.2%
SMILES: CC(Cc1ccc(O)c(O)c1)C(C)Cc1ccc(O)c(O)c1 (stereo not shown) [NDGA, reference compound]
